The target in one assay is T1, Human cathepsin G (Homo sapiens, UniProt P08311).
T1 construct: purchased Calbiochem 219373
T1 sequence (P08311 21-244): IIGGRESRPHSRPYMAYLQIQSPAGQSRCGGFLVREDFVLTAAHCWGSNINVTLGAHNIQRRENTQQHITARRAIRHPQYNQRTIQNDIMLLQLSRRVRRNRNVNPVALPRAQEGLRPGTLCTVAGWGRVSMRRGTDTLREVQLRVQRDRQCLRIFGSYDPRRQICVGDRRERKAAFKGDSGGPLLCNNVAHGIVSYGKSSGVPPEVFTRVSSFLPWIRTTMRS
The experiment in a line: Human cathepsin G assay. Format: biochemical. The protocol: Using this assay, the selectivity of a compound of the invention for hDPP-I over human cathepsin G was determined, using a chromogenic substrate.
Buffer containing 100 mM Tris/HCl pH 8.3 (25° C.), 500 mM NaCl, and 20 mM CaCl2 prepared. DTNB (5,5′-dithio-bis(2-nitrobenzoic acid)) was added just prior to experiment (10 μL 1.25 mM/well).
Human cathepsin G (Calbiochem Cat # 219373, 50 ng/μL 0.1 mU/μL stock) was reconstituted in 50 mM sodium acetate and 150 mM NaCl (pH 5.5), and stored at −20° C. Diluted to 2 ng/μL in buffer just prior to experiment.
Suc-Ala-Ala-Pro-Phel-SBzl (Bachem Cat # 4009924.0050) diluted to 1 mM in buffer from 10 mM stock in buffer. Km determined to 100-200 μM.
The assay was performed in 96-well plates. 60 μL assay buffer was added to the well followed by 10 μL DTNB (1.25 mM), and 10 μL of a compound of the invention (100 μM, diluted with assay buffer to give 10 μM in the assay). Then 10 μL (2 ng/μL) enzyme was added, and 10 min. later (at 37° C.) 10 μL substrate (100 μM final concentration) was added. The absorption was measured at 410 nm for 10 minutes at 37° C. Each measurement was made in duplicate. In the software (SOFTmax Pro) used for data collection from the UV-spectrometer it was ensured that the measured slopes were linear (R^2>0.99). […]

Another assay addresses T2, CYP1A2 (Homo sapiens, UniProt P05177).
T2 construct: purchased PanVera Vivid CYP1A2 Blue Screening Kit; host or cells: insect cells infected with baculovirus (microsomes)
T2 sequence (P05177 2-516 limits assumed): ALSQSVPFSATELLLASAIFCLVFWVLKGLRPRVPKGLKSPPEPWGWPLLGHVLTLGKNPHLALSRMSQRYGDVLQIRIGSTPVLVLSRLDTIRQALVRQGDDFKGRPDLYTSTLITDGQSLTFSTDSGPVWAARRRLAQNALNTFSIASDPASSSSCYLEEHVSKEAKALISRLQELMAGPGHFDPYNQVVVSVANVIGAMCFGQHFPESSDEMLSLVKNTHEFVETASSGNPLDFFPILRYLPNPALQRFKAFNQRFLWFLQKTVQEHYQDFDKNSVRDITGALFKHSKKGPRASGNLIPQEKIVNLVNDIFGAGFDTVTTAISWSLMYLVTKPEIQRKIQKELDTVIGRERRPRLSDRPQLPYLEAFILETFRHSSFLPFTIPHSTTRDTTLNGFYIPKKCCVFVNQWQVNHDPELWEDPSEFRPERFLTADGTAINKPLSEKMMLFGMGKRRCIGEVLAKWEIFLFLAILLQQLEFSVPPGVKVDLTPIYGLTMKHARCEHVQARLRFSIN
The experiment in a line: Human CYP1A2 assay (Vivid CYP1A2 Blue Screening Kit). The conditions noted are these: 20 μM cutoff; read-out: Metabolism: CYP enzymes (20 μM cutoff or IC50) CYP1A2. Format: in vitro ADME. The protocol:
This assay was used to determine the effect of a compound of the invention on the CYP1A2 liver metabolizing enzyme.
Vivid® CYP1A2 Blue Screening Kit from PanVera was used.
Vivid®CYP450 Reaction Buffer I: 200 mM potassium phosphate buffer, pH 8.
CYP1A2 baculosoniese® reagent: CYP1A2 and […] (P450-specific content: 1.1 μM). Microsomes prepared from insect cells that were infected with baculovirus containing the cDNA for human CYP1A2 and rabbit cytochrome P450 reductase.
Regenerating System: 333 mM glucose-6-phosphate and 40 U/mL glucose-6-phosphate dehydrogenase in 100 mM potassium phosphate buffer, pH 8.
Vivid® CYP1A2 Blue Substrate.
Vivid® Blue Standard: 3-cyano-7-hydroxycoumarin.
10 mM NADP^+ in 100 mM potassium phosphate buffer, pH 8.
(§1) Tubes thawed on ice. 2× reaction buffer dispensed (room temperature) in two eppendorf tubes (for Mix A and Mix B).
(§2) Controls or compounds of the invention: Diluted to a concentration of 50 μM. Positive control compound: α-naphthoflavone.
(§3) Negative controls: DMSO and H2O.
Mix A: 485 μL reaction buffer, 10 μL regeneration system, 5 μL Baculosome reagent. Mixed gently and placed on ice. […]
In a 96-well plate (Costar c-3904), 40 μL of 50 μM sample dispensed. […] Fluorescence determined (Molecular Devices, SPECTRAmax Gemini EM): Ex: 409 nm, Em: 460 nm, at 37° C. for 20 min. (Automix: 5 s, top read.).

For the next assay, the target named is T3, CYP2C9 (Homo sapiens, UniProt P11712).
T3 construct: purchased PanVera Vivid CYP2C9 Red Screening Kit
The experiment in a line: CYP2C9 assay (Vivid CYP2C9 Red Screening Kit). Format: in vitro ADME. The settings on record: 20 μM cutoff; read-out: Metabolism: CYP enzymes (20 μM cutoff or IC50) CYP2C9. The method, then:
as §1, §2, §3
(§4) Mix A: 485 μL reaction buffer, 10 μL regeneration system, 5 μL Baculosome reagent. Mixed gently and placed on ice.
(§5) Mix B: 88.5 μL reaction buffer, 1.5 μL substrate, 10 μL 10 mM NADP^+.
(§6) In a 96-well plate (Costar c-3904), 40 μL of 50 μM sample dispensed. 50 μl Mix A added. Incubated 20 min. at rt. Then, 10 μl of Mix B added. Fluorescence determined (Molecular Devices, SPECTRAmax Gemini EM): Ex: 409 nm, Em: 460 nm, at 37° C. for 20 min. (Automix: 5 s, top read.).
(§7) Following the procedure for CYP1A2, using the appropriate kits below, the effect of a compound of the invention on the other CYP enzymes was determined:
Vivid® CYP2C9 Red Screening Kit from PanVera.

The target in another assay is T4, CYP3A4 (Homo sapiens, UniProt P08684).
T4 construct: purchased PanVera Vivid CYP3A4 Red Screening Kit
Kind of assay: CYP3A4 assay (Vivid CYP3A4 Red Screening Kit). Format: in vitro ADME. The conditions noted are these: read-out: Metabolism: CYP enzymes (20 μM cutoff or IC50) CYP3A4. The protocol: as §1, §2, §3, §4, §5, §6, §7
Vivid® CYP3A4 Red Screening Kit from PanVera.

Square brackets hold non-standard residues; d marks the D form. Peptide text beside a SMILES is read from it. Phe(3-F) = N[C@@H](Cc1cccc(F)c1)C(=O)O; hPhe = N[C@@H](CCc1ccccc1)C(=O)O; Abu = CC[C@H](N)C(=O)O; azaGly = NNC(=O)O

T4 sequence (P08684 whole entry): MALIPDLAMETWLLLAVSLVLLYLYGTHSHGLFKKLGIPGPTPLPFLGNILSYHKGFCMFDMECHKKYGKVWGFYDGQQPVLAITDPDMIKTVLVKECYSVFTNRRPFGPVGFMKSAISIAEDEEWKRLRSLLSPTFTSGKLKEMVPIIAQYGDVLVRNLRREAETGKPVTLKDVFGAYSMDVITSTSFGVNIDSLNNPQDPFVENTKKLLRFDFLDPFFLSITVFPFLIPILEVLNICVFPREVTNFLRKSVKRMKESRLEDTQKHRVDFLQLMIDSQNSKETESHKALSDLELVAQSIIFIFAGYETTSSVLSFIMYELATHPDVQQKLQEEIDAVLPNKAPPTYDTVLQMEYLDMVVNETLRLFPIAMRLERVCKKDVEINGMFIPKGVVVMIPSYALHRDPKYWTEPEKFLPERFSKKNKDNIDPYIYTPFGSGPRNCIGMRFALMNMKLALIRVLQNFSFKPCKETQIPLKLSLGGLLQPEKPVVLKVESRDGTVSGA
T3 sequence (P11712 whole entry): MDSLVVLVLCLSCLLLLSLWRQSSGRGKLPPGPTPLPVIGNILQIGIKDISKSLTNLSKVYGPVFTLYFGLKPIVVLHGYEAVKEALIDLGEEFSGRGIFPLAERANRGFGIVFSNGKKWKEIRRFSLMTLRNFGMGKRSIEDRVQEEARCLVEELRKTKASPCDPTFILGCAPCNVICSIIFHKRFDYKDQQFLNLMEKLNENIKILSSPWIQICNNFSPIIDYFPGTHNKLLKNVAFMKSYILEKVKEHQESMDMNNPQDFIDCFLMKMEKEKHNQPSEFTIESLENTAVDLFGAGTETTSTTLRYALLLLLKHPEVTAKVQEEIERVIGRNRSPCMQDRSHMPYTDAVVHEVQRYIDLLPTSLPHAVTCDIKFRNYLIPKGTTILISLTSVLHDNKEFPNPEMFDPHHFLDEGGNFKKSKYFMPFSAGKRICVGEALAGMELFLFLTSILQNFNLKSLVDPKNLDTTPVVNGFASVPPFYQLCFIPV

As usually defined, the IC50 is the concentration needed to halve the response being measured. `CC[C@H](N)C(=O)NNC(=O)N[C@@H](CCc1ccccc1)C(=O)N[C@@H](Cc1cccc(F)c1)C(N)=O` [Example 11, 1-(2S-2-Aminobutanoyl)-4-[2S-N-[2S-3-(m-fluorophenyl)propan-2-yl-amide]-4-phenylbutan-2-yl-amide]semicarbazide] (H-[Abu][azaGly][hPhe][Phe(3-F)]-NH2): the “Inhibition of Cathepsin G (in words)” value on Human cathepsin G is “does not inhibit”. Moreover, the IC50 at Human cathepsin G (human cathepsin G, 10 μM cutoff, read-out: Secondary enzymatic screening (10 μM cutoff or IC50) Cathepsin G) was > 10 µM; at CYP1A2, > 20 µM; at CYP2C9 it was > 20 µM; on CYP3A4, 0.6 µM.
